How the values were obtained:
[1] = molecular target: T1, T7 RNA polymerase (Escherichia phage T7, UniProt P00573); experiment: mRNA in-vitro transcription yield with cap analog (T7 IVT, Nanodrop One quantification); format: biochemical; details: for Yield: mRNA from 20 μL IVT system, 1 μl 100 mM cap analog, 1 μg template, 37° C. 2 h; for in-vitro transcription yield compared with Comparative Example 1 (in words): text summary of Table 4
Experimental: (§1) In-vitro synthesis of mRNA cap analogs modified with vinylphosphonic acid: Firstly, a plasmid was linearized with NotI and digested at […] overnight. A DNA template was extracted. mRNAs were synthesized by in-vitro transcription using the vinylphosphonic acid-modified mRNA cap analogs of Examples 1-7 and compounds 10-13, 16, 17, 25, 31 and 34, and the cap analog of Comparative Example 1 as cap structures, respectively.
(§2) Note: During the experiment, the volume of the materials required for the system was calculated firstly, and then sample loading was performed. Firstly, sterile enzyme-free water was added into the system, and then 10× buffer, NTPs, and the cap analog were sequentially added. The mixture was uniformly mixed and then gently centrifuged, followed by addition of the nuclease inhibitor, the inorganic pyrophosphatase, the T7 RNA polymerase, and the linearized DNA template. The mixture was well mixed, then gently centrifuged, and incubated at 37° C. After 2 h, DNase I (1 U) was added, and the mixture was incubated at 37° C. for another 30 min to remove the DNA template. RNA purification was then performed (usually using the magnetic bead purification method). The purified mRNA was dissolved in sterile enzyme-free water, and then quantitative detection was performed by using Nanodrop One.

[2] = molecular target: T1, T7 RNA polymerase; experiment: IVT capping rate of mRNA by LC-MS after RNase H cleavage; format: biochemical; details: for Capping rate: LC-MS of mRNA transcribed with the cap analog; for capping efficiency compared with Comparative Example 1 (in words): text summary of Table 4
Experimental: as §1, §2
Liquid chromatography-mass spectrometry (LC-MS) was used to detect the IVT capping rates of mRNAs with different starting cap analogs. Firstly, a labeled (usually biotin-labeled) DNA probe matched with the starting base of mRNA as the transcript product was required to be designed, and streptavidin-labeled magnetic beads were washed, and then incubated with the synthesized DNA probe, mRNA and 10× RNase H reaction buffer with slowly mixing at room temperature for 30 min. 20 L of RNase H (5 U/μL) was then added, and the mixture was incubated at 37° C. for 3 h, with uniform mixing every half hour. After the incubation was completed, the magnetic beads were cleaned, and then 100 μL of 75% methanol heated to 80° C. was added to the cleaned magnetic beads. The mixture was heated to 80° C. on a heating plate, held for 3 min, and then placed on a magnetic rack. The supernatant was pipetted and dried at room temperature for 45 min to 10 Lby using an evaporation centrifuge. The sample was then resuspended in 50 μL of 100 μM EDTA/1% MeOH for LC-MS analysis to determine the capping of RNA in the transcription reaction. Due to the significant difference in molecular weight between capped and uncapped bases, the capping rates of mRNA transcription initiated with different cap analogs can be determined by using the difference in molecular weight.

[3] = molecular target: eukaryotic initiation factor (elF4E) (Homo sapiens, UniProt P06730); experiment: Assay of binding ability to eukaryotic initiation factor (elF4E), Biacore T100; details: cap analog to elF4E protein; running buffer pH 6.0 or 7.4; read-out: Binding constant (converted)
eukaryotic initiation factor (elF4E), sequence (P06730 whole entry): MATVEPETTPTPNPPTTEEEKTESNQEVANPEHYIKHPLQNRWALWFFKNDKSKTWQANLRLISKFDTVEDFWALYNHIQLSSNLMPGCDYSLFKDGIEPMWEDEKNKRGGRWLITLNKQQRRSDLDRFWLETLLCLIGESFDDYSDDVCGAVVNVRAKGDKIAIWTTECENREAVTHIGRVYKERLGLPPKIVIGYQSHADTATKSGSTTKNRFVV
Experimental: Test method: Firstly, experimental samples, including the cap analog samples of Examples 1-7, compounds 10-13, 16, 17, 25, 31 and 34, and Comparative Example 1, were diluted with a running buffer (50 mM phosphate, 100 mM sodium chloride, and 0.01% vol/vol Tween 20, pH 6.0 or 7.4). The sample injection time was […], the sample injection flow rate was 20 L/min, and the dissociation time was […]. The residual samples were eluted with a regeneration buffer (10 mM HEPES, 150 mM NaCl, and 0.010% vol/vol Tween 20, pH 7.4) for 30 s at a flow rate of 30 μL/min. Finally, through analysis by Biacore T100 evaluation software (version 2.0.2), sensorgrams were generated and the binding constants were calculated.

T1 sequence (P00573 whole entry): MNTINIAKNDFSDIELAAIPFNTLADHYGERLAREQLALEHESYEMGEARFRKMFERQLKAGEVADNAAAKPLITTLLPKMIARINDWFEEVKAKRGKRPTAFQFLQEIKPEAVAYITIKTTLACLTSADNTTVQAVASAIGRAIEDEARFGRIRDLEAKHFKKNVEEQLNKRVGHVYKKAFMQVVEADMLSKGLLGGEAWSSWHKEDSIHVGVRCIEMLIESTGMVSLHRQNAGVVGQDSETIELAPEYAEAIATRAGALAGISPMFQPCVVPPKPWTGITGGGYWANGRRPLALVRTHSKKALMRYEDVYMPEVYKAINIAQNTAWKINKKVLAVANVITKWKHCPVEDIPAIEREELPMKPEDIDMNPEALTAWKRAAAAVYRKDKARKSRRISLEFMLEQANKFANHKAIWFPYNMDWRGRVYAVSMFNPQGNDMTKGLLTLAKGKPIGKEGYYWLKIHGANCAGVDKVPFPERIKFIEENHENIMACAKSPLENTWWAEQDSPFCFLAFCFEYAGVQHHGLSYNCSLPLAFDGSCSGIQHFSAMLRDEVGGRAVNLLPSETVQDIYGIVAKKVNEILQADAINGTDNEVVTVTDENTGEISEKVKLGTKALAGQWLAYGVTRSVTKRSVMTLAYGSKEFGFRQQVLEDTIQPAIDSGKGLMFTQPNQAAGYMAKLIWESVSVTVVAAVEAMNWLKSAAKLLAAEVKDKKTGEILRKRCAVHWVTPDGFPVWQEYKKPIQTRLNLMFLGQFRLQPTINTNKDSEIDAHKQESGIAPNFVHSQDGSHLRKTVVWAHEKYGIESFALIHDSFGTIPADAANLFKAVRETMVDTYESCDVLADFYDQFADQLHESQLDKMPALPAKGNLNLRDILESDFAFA

For `COCCOC1C(O)[C@H](n2c[n+](C)c3c(=O)[nH]c(N)nc32)O[C@@H]1/C=C/P(=O)(O)OP(=O)(O)OP(=O)(O)OC[C@H]1O[C@@H](n2cnc3c(N)ncnc32)C(OC)C1OP(=O)(O)OC[C@H]1O[C@@H](n2cnc3c(=O)[nH]c(N)nc32)C(O)C1O` (stereo partly drawn) [Compound 10], the Yield [1] was 124 µg, the Capping rate [2] was 96.4% and the Kd [3] was 218 nM.
`COCC1C(O)[C@H](n2c[n+](C)c3c(=O)[nH]c(N)nc32)O[C@@H]1/C=C/P(=O)(O)OP(=O)(O)OP(=O)(O)OC[C@H]1O[C@@H](n2cnc3c(N)ncnc32)C(OC)C1OP(=O)(O)OC[C@H]1O[C@@H](n2cnc3c(=O)[nH]c(N)nc32)C(O)C1O` (stereo partly drawn) [Compound 11] was tested, and the Yield [1] was 116 µg, the Capping rate [2] was 95.7% and the Kd [3] was 246 nM.
With `COC1C(OP(=O)(O)OC[C@H]2O[C@@H](n3cnc4c(=O)[nH]c(N)nc43)C(O)C2O)[C@@H](COP(=O)(O)OP(=O)(O)OP(=O)(O)/C=C/[C@H]2O[C@@H](n3c[n+](C)c4c(=O)[nH]c(N)nc43)C(O)C2CNC(C)=O)O[C@H]1n1cnc2c(N)ncnc21` (stereo partly drawn) [Compound 12] the Yield [1] was 123 µg, the Capping rate [2] was 96.6% and the Kd [3] was 214 nM.
`COC1C(OP(=O)(O)OC[C@H]2O[C@@H](n3cnc4c(=O)[nH]c(N)nc43)C(O)C2O)[C@@H](COP(=O)(O)OP(=O)(O)OP(=O)(O)/C=C/[C@H]2O[C@@H](n3c[n+](C)c4c(=O)[nH]c(N)nc43)CC2OC)O[C@H]1n1cnc2c(N)ncnc21` (stereo partly drawn) [Compound 13] showed a Yield [1] of 112 µg, a Capping rate [2] of 95.4% and a Kd [3] of 265 nM.
`COC1C(OP(=O)(O)OC[C@H]2O[C@@H](n3cnc4c(=O)[nH]c(N)nc43)C(O)C2O)[C@@H](COP(=O)(O)OP(=O)(O)OP(=O)(O)/C=C/[C@H]2O[C@@H](n3c[n+](C)c4c(=O)[nH]c(N)nc43)C(F)C2O)O[C@H]1n1cnc2c(N)ncnc21` (stereo partly drawn) [Compound 16] was tested, and the Yield [1] was 114 µg, the Capping rate [2] was 95.8% and the Kd [3] was 269 nM.
Compound `COC1C(OP(=O)(O)OC[C@H]2O[C@@H](n3ccc(=O)[nH]c3=O)C(O)C2O)[C@@H](COP(=O)(O)OP(=O)(O)OP(=O)(O)/C=C/[C@H]2O[C@@H](n3c[n+](C)c4c(=O)[nH]c(N)nc43)C(O)C2CNC(C)=O)O[C@H]1n1cnc2c(N)ncnc21` (stereo partly drawn) [Compound 17] has a Yield [1] of 122 µg, a Capping rate [2] of 96.2% and a Kd [3] of 222 nM.
`COC1C(OP(=O)(O)OC[C@H]2O[C@@H](n3cnc4c(=O)[nH]c(N)nc43)C(O)C2O)[C@@H](/C=C\P(=O)(O)OP(=O)(O)OP(=O)(O)OC[C@H]2O[C@@H](n3c[n+](C)c4c(=O)[nH]c(N)nc43)C(O)C2CNC(C)=O)O[C@H]1n1cnc2c(N)ncnc21` (stereo partly drawn) [Compound 25] gave a Yield [1] of 120 µg, a Capping rate [2] of 96.1% and a Kd [3] of 224 nM.
`COC1C(OP(=O)(O)OC[C@H]2O[C@@H](n3cnc4c(=O)[nH]c(N)nc43)C(O)C2O)[C@@H](COP(=O)(O)OP(=O)(O)OP(=O)(O)/C=C/[C@H]2O[C@@H](n3c[n+](C)c4c(=O)[nH]c(N)nc43)C(O)C2CN(C)C(C)=O)O[C@H]1n1cnc2c(N)ncnc21` (stereo partly drawn) [Compound 31] showed a Yield [1] of 115 µg, a Capping rate [2] of 95.7% and a Kd [3] of 239 nM.
In the case of `CCCC(=O)NCC1C(O)[C@H](n2c[n+](C)c3c(=O)[nH]c(N)nc32)O[C@@H]1/C=C/P(=O)(O)OP(=O)(O)OP(=O)(O)OC[C@H]1O[C@@H](n2cnc3c(N)ncnc32)C(OC)C1OP(=O)(O)OC[C@H]1O[C@@H](n2cnc3c(=O)[nH]c(N)nc32)C(O)C1O` (stereo partly drawn) [Compound 34], the Yield [1] is reported as 117 µg, the Capping rate [2] is reported as 95.9% and the Kd [3] is reported as 236 nM.
`COC1C(OP(=O)(O)/C=C/[C@H]2O[C@@H](n3cnc4c(=O)[nH]c(N)nc43)C(O)C2O)[C@@H](COP(=O)(O)OP(=O)(O)OP(=O)(O)OC[C@H]2O[C@@H](n3c[n+](C)c4c(=O)[nH]c(N)nc43)C(O)C2O)O[C@H]1n1cnc2c(N)ncnc21` (stereo partly drawn) [Example 1] showed a Yield [1] of 117 µg, a Capping rate [2] of 96.4% and a Kd [3] of 313 nM.
In the case of `COC1C(OP(=O)(O)OC[C@H]2O[C@@H](n3cnc4c(=O)[nH]c(N)nc43)C(O)C2O)[C@@H](COP(=O)(O)OP(=O)(O)OP(=O)(O)/C=C/[C@H]2O[C@@H](n3c[n+](C)c4c(=O)[nH]c(N)nc43)C(O)C2O)O[C@H]1n1cnc2c(N)ncnc21` (stereo partly drawn) [Example 2], the Yield [1] is reported as 125 µg, the Capping rate [2] is reported as 96.3% and the Kd [3] is reported as 216 nM.
Compound `COC1C(OP(=O)(O)OC[C@H]2O[C@@H](n3cnc4c(=O)[nH]c(N)nc43)C(O)C2O)[C@@H](/C=C/P(=O)(O)OP(=O)(O)OP(=O)(O)OC[C@H]2O[C@@H](n3c[n+](C)c4c(=O)[nH]c(N)nc43)C(O)C2O)O[C@H]1n1cnc2c(N)ncnc21` (stereo partly drawn) [Example 3] has a Yield [1] of 122 µg, a Capping rate [2] of 95.3% and a Kd [3] of 240 nM.
`COC1[C@@H](OP(=O)(O)/C=C/[C@H]2O[C@@H](n3cnc4c(=O)[nH]c(N)nc43)C(O)[C@H]2O)[C@@H](COP(=O)(O)OP(=O)(O)OP(=O)(O)/C=C\[C@H]2O[C@@H](n3c[n+](C)c4c(=O)[nH]c(N)nc43)[C@@H](O)C2O)O[C@H]1n1cnc2c(N)ncnc21` (stereo partly drawn) [Example 4] was tested, and the Yield [1] was 106 µg, the “in-vitro transcription yield compared with Comparative Example 1 (in words)” value [1] was “significantly lower than those of Comparative Example 1” and the Capping rate [2] was 94.5%. For the same compound, the “capping efficiency compared with Comparative Example 1 (in words)” value [2] was “significantly lower than those of Comparative Example 1” and the Kd [3] was 377 nM.
For `COC1[C@@H](OP(=O)(O)OC[C@H]2O[C@@H](n3cnc4c(=O)[nH]c(N)nc43)C(O)[C@H]2O)[C@@H](/C=C\P(=O)(O)OP(=O)(O)OP(=O)(O)/C=C\[C@H]2O[C@@H](n3c[n+](C)c4c(=O)[nH]c(N)nc43)[C@@H](O)C2O)O[C@H]1n1cnc2c(N)ncnc21` (stereo partly drawn) [Example 5], the Yield [1] was 102 µg, the “in-vitro transcription yield compared with Comparative Example 1 (in words)” value [1] was “significantly lower than those of Comparative Example 1” and the Capping rate [2] was 90.2%. The “capping efficiency compared with Comparative Example 1 (in words)” value [2] was “significantly lower than those of Comparative Example 1” and the Kd [3] was 395 nM.
For `COC1[C@@H](OP(=O)(O)/C=C/[C@H]2O[C@@H](n3cnc4c(=O)[nH]c(N)nc43)C(O)[C@H]2O)[C@@H](/C=C\P(=O)(O)OP(=O)(O)OP(=O)(O)OC[C@H]2O[C@@H](n3c[n+](C)c4c(=O)[nH]c(N)nc43)[C@@H](O)C2O)O[C@H]1n1cnc2c(N)ncnc21` (stereo partly drawn) [Example 6], the Yield [1] was 96 µg, the “in-vitro transcription yield compared with Comparative Example 1 (in words)” value [1] was “significantly lower than those of Comparative Example 1” and the Capping rate [2] was 87.3%. The “capping efficiency compared with Comparative Example 1 (in words)” value [2] was “significantly lower than those of Comparative Example 1” and the Kd [3] was 362 nM.
